Like-named read-outs stand apart in the source and are kept apart here.
What was measured:
[1] = tested on: bacteria Staphylococcus aureus, Escherichia coli, and Lactobacillus brevis; assay: Amount of antimicrobial acid required to pass EN1276:2009 (antibacterial activity); type: cell-based; settings: gluconic and salicylic acid used in combination
Excerpt: To pass the EN1276 test method, a log reduction of greater than or equal to 5 must be achieved in five minutes.

[2] = tested on: fungus Aspergillus niger and yeast Saccharomyces cerevisiae; assay: Amount of antimicrobial acid required to pass EN1650:2008 (antifungal activity); type: cell-based; settings: gluconic and salicylic acid used in combination
Excerpt: To pass the EN 1650:2008 antimicrobial testing protocol, a log reduction of greater than or equal to 4 must be achieved in fifteen minutes.

[3] = in combination with gluconic acid

SMILES | Concentration of Antimicrobial Acids required to pass ([1]; Clean, 4° C.) [ppm] | Concentration of Antimicrobial Acids required to pass ([1]; Clean, 25° C.) [ppm] | Concentration of Antimicrobial Acids required to pass ([1]; Dirty, 4° C.) [ppm] | Concentration of Antimicrobial Acids required to pass ([1]; Dirty, 25° C.) [ppm] | Concentration of Antimicrobial Acids required to pass ([2]; Clean, 4° C.) [ppm] | Concentration of Antimicrobial Acids required to pass ([2]; Clean, 25° C.) [ppm] | Concentration of Antimicrobial Acids required to pass ([2]; Dirty, 4° C.) [ppm] | Concentration of Antimicrobial Acids required to pass ([2]; Dirty, 25° C.) [ppm] | required amount of salicylic acid in the disclosed cleaning disinfectant solution [3] | required amount of salicylic acid in the disclosed cleaning disinfectant solution ([3]; to pass EN1276:2009 and EN1650:2008)
O=C(O)c1ccccc1O [Salicylic Acid, Salicylic acid] | 75 | 37 | 75 | 37 | 188 | 150 | 188 | 188 | less than 2 % by weight | less than 2 wt %
O=C(O)[C@H](O)[C@@H](O)[C@H](O)[C@H](O)CO [Gluconic Acid, Gluconic acid] | 300 | 150 | 300 | 150 | 750 | 600 | 750 | 750 | – | –

From patent US12225903B2, “Synergistic cleaning disinfectant solution with enhanced stability, and methods of using the same” (Diversey, Inc., priority 2019, dated 2025)
